Laboratory results as given in patent US20210332024A1, “MODULATORS OF PIN1 ACTIVITY AND USES THEREOF” (Yeda Research and Development Co. Ltd., priority 2019, published 2021).

Assays:
[1] = biological target: T1, catalytic domain of Pin1 (Homo sapiens, UniProt Q13526); test: Intact protein LC/MS labeling of Pin1; type: binding
T1 construct: The purified catalytic domain of Pin1 was incubated with the fragment library
Description: 993 compounds were transferred to a 384-well plate working copy by combining 0.5 μl of 20 mM stock solution of four or five compounds per well. The catalytic domain of Pin1 (2 μM) in 20 mM Tris, 75 mM NaCl, pH 7.5 was incubated with 200 μM for each compound and moderately shaken for 24 hours at 4° C. The reaction was stopped by the addition of formic acid to 0.4% (v/v) final concentration.
Liquid chromatography/mass spectroscopy runs were performed on an Acquity™ UPLC® H-class system (Waters) in positive ion mode using electrospray ionization (ESI). UPLC separation was performed on a C4 column (300 Å, 1.7 μM, […]). The column was held at 40° C., and the autosampler at 10° C. Mobile solution A was 0.1% formic acid in water and mobile phase B was 0.1% formic acid in acetonitrile. Run flow was 0.4 ml/minute; and a gradient of 20% B for 2 minutes, increasing linearly to 60% B for 3 minutes, holding at 60% B for 1.5 minutes, changing to 0% B in 0.1 minute and holding at 0% for 1.4 minutes, was used. Desolvation temperature was 500° C. with a flow rate of 1000 liters/hour. The capillary voltage was 0.69 kV and cone voltage 46 V. Raw data was processed using OpenLynx™ software and deconvoluted using the MaxEnt tool. Labeling assignment was performed as described in Resnick et al. [J Am Chem Soc 2019, 141:8951-8968].
For the screening 2 μl of each of the 448 click products as 50 μM DMSO stocks were transferred into a 384-well plate working plate. 48 μl of catalytic domain of Pin1 (2 μM) in 20 mM Tris (pH 7.5) with 75 mM NaCl were added and moderately shaken and incubated for 15 minutes at room temperature. The reaction was stopped by the addition of formic acid to 0.4% (v/v) final concentration (20 μl). The mixtures were analyzed by liquid chromatography/mass spectroscopy analogously to the electrophile library incubations described herein. Hits were retrospectively analyzed by liquid chromatography/mass spectroscopy (LC-MS) to ensure reaction completion.
For each measured well, processed peaks were searched to match the mass of unlabeled protein or common small adducts of the unlabeled protein, which were found in the control sample or labeled protein. Labeling percentage for a compound was determined as the labeling of a specific compound divided by the overall detected protein species. Peaks whose mass could not be assigned were discarded from the overall labeling calculation. Data was analyzed using a python script for processing the MaxEnt-deconvoluted spectra. Peaks were normalized from ion counts to percentages, where the highest peak is defined as 100%. The unlabeled protein mass is deduced from a reference well that contains just the protein.
The purified catalytic domain of Pin1 was incubated with the fragment library (2 μM protein, 200 μM compound; 24 hours at 4° C.), followed by intact protein liquid chromatography/mass-spectrometry (LC/MS) to identify and quantify compound labeling. FIG. 1 depicts an example of a compound identified in this manner.
Based on the docking predictions, a total of 26 compounds that featured a range of small or bulky aliphatic, arylic, biphenylic or heterocyclic side-chains (structures depicted in FIG. 5), were synthesized or purchased. In order to identify potent binders, the irreversible labeling efficiency of these second-generation compounds was assessed alongside the original screening hits under more stringent conditions, with a 1:1 ratio of protein to compound (2 μM compound; 1 hour at room temperature).
For further optimization of the lipophilic moiety, an alkyne side chain-bearing analog was prepared, which was derivatized with 448 different azides using copper-catalyzed azide-alkyne cycloaddition (CuAAC).

[2] = Thiol reactivity assay (DTNB); type: physicochemical; conditions: 200 μM compound, pH 7.4, 37° C.
Description: 50 μM DTNB (dithionitrobenzoic acid) was incubated with 200 μM TCEP (tris(2-carboxytehyl)phosphine) in 20 mM sodium phosphate buffer (pH 7.4) with 150 mM NaCl, for 5 minutes at room temperature, in order to obtain TNB^2− (thionitrobenzoate dianion). 200 μM compounds were subsequently added to the TNB^2−, followed by immediate UV absorbance measurement at 412 nm (at 37° C.). The UV absorbance was acquired every 15 minutes for 7 hours. The assay was performed in a 384-well plate using a Spark™ 10M plate reader (Tecan). Background absorbance of compounds was subtracted by measuring the absorbance at 412 nm of each compound under the same conditions without DTNB. Compounds were measured in triplicates. The data was fitted to a second order reaction equation such that the rate constant k is the slope of ln([A][B0]/[B][A0]), where [A0] and [B0] are the initial concentrations of the compound (200 μM) and TNB^2− (100 μM) respectively, and [A] and [B] are the remaining concentrations as a function of time, as determined from the spectrometric measurement. Linear regression using Prism® software was performed to fit the rate against the first four hours of measurements.
In order to estimate the influence of the various lipophilic moieties on “warhead” reactivity [Flanagan et al., J Med Chem 2014, 57:10072-10079; Lonsdale et al., J Chem Inf Model 2017, 57:3124-3137; Dahal et al., Medchemcomm 2016, 7:864-872], the thiol reactivity of the top ten binders of the second and third generation was assessed using a high-throughput assay previously applied to the entire fragment library, as described in Resnick et al. [J Am Chem Soc 2019, 141:8951-8968]. In brief, the second-order rate constant was evaluated for a model thiol, which reflects trends in general reactivity towards thiol groups.

[3] = 2 μM Pin1 with 2 μM test compound for 1 hour at room temperature
[4] = 2 μM Pin1 with 200 μM test compound for 24 hours at 4° C.
[5] = 2 μM Pin1 with 2 μM test compound for 15 minutes at room temperature

T1 sequence (Q13526 52-163 limits assumed): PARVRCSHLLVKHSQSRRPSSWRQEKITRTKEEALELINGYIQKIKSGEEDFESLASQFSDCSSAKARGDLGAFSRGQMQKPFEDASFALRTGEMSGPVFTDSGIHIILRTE

| SMILES | Labeling [%] [1, 3] | Labeling [%] [1, 4] | Labeling [%] [1, 5] | Reactivity Log k [2] | Reactivity k [2] |
| --- | --- | --- | --- | --- | --- |
| O=C(CCl)N(CC1CCCO1)C1CCS(=O)(=O)C1 (stereo not drawn) [Pin1-838] | 16% |  |  | −6.85 | 1.41e-07 M⁻¹ s⁻¹ |
| O=C(CCl)N(C1CC1)C1CCS(=O)(=O)C1 (stereo not drawn) [PCM-0102832] |  | 72% |  | −7.22 | 6.02e-08 M⁻¹ s⁻¹ |
| COCCN(C(=O)CCl)C1CCS(=O)(=O)C1 (stereo not drawn) [Pin1-324] | 12% |  |  | −6.80 | 1.59e-07 M⁻¹ s⁻¹ |
| CC(=O)c1cccc(-n2cc(CN(C(=O)CCl)C3CCS(=O)(=O)C3)nn2)c1 (stereo not drawn) [Compound P1-03-D08] |  |  | 54% | −5.92 | 1.2e-06 M⁻¹ s⁻¹ |
| CN(C)CCN(C(=O)CCl)C1CCS(=O)(=O)C1 (stereo not drawn) [Pin1-707] | 0% |  |  | −8.93 | 1.17e-09 M⁻¹ s⁻¹ |
| NS(=O)(=O)c1ccc(-n2cc(CN(C(=O)CCl)C3CCS(=O)(=O)C3)nn2)cc1 (stereo not drawn) [Compound P1-03-G07] |  |  | 73% | −5.86 | 1.37e-06 M⁻¹ s⁻¹ |
| O=C(CCl)N(Cc1cccc(Cl)c1)C1CCS(=O)(=O)C1 (stereo not drawn) [Pin1-2-11] | 19% |  |  | −6.94 | 1.15e-07 M⁻¹ s⁻¹ |
| CCCN(C(=O)CCl)C1CCS(=O)(=O)C1 (stereo not drawn) [Pin1-028] | 16% |  |  | −6.80 | 1.59e-07 M⁻¹ s⁻¹ |
| CC(c1ccccc1)N(C(=O)CCl)C1CCS(=O)(=O)C1 (stereo not drawn) [Pin1-2-2] | 27% |  |  | −7.09 | 8.06e-08 M⁻¹ s⁻¹ |
| O=C(CCl)N(Cc1cccc(F)c1)C1CCS(=O)(=O)C1 (stereo not drawn) [Pin1-2-5] | 24% |  |  | −6.88 | 1.31e-07 M⁻¹ s⁻¹ |
| O=C(CCl)N(Cc1cn(-c2ccc(CO)cc2)nn1)C1CCS(=O)(=O)C1 (stereo not drawn) [Compound P1-02-H08] |  |  | 73% | −5.88 | 1.32e-06 M⁻¹ s⁻¹ |
| O=C(CCl)N(C1CCCC1)C1CCS(=O)(=O)C1 (stereo not drawn) [PCM-0102313] |  | 83% |  | −6.97 | 1.07e-07 M⁻¹ s⁻¹ |
| CCC(C)N(C(=O)CCl)C1CCS(=O)(=O)C1 (stereo not drawn) [Pin1-053] | 28% |  |  | −6.91 | 1.24e-07 M⁻¹ s⁻¹ |
| COC(=O)c1ccc(-n2cc(CN(C(=O)CCl)C3CCS(=O)(=O)C3)nn2)cc1 (stereo not drawn) [Compound P1-01-B11] |  |  | 89% | −6.86 | 1.37e-07 M⁻¹ s⁻¹ |
| CCN(C(=O)CCl)C1CCS(=O)(=O)C1 (stereo not drawn) [PCM-0102105] | 0% | 85% |  | −6.96 | 1.1e-07 M⁻¹ s⁻¹ |
| O=C(CCl)N(Cc1cn(-c2cccc(Cl)c2)nn1)C1CCS(=O)(=O)C1 (stereo not drawn) [Compound P1-01-G10] |  |  | 67% | −6.92 | 1.2e-07 M⁻¹ s⁻¹ |
| O=C(CCl)N(C1CCCCC1)C1CCS(=O)(=O)C1 (stereo not drawn) [PCM-0102760] |  | 100% |  | −7.00 | 1e-07 M⁻¹ s⁻¹ |
| O=C(CCl)N(Cc1cn(-c2ccc(O)cc2)nn1)C1CCS(=O)(=O)C1 (stereo not drawn) [Compound P1-03-C04] |  |  | 72% | −6.42 | 3.78e-07 M⁻¹ s⁻¹ |
| O=C(CCl)NC1CCS(=O)(=O)C1 (stereo not drawn) [PCM-0102138] | 0% | 56% |  | −6.92 | 1.2e-07 M⁻¹ s⁻¹ |
| O=C(CCl)N(Cc1ccccc1)C1CCS(=O)(=O)C1 (stereo not drawn) [Pin1-437] |  |  |  | −6.82 | 1.51e-07 M⁻¹ s⁻¹ |
| O=C(CCl)N(c1ccccc1)C1CCS(=O)(=O)C1 (stereo not drawn) [PCM-0102755] |  | 83% |  | −6.81 | 1.54e-07 M⁻¹ s⁻¹ |
| O=C(CCl)N(Cc1ccccc1-c1ccccc1)C1CCS(=O)(=O)C1 (stereo not drawn) [Pin1-2-10] | 25% |  |  | −6.89 | 1.3e-07 M⁻¹ s⁻¹ |
| O=C(CCl)N(CC1CCCC1)C1CCS(=O)(=O)C1 (stereo not drawn) [Pin1-3-14, 2-chloro-N-(sulfolan-3-yl)-N-(cyclopentylmethyl)acetamide] |  |  |  | −7.15 | 7.03e-08 M⁻¹ s⁻¹ |
| O=C(CCl)N(Cc1ccco1)C1CCS(=O)(=O)C1 (stereo not drawn) [Pin1-128] | 25% |  |  | −6.83 | 1.47e-07 M⁻¹ s⁻¹ |
| O=C(CCl)N(Cc1ccccc1-c1cccc(C(F)(F)F)c1)C1CCS(=O)(=O)C1 (stereo not drawn) [Pin1-3-8] | 23% |  |  | −7.09 | 8.22e-08 M⁻¹ s⁻¹ |
| CC(=O)c1ccc(-n2cc(CN(C(=O)CCl)C3CCS(=O)(=O)C3)nn2)cc1 (stereo not drawn) [Compound P1-02-B04] |  |  | 62% | −5.90 | 1.26e-06 M⁻¹ s⁻¹ |
| COc1ccc(-n2cc(CN(C(=O)CCl)C3CCS(=O)(=O)C3)nn2)cc1 (stereo not drawn) [Compound P1-04-B02] |  |  | 69% | −5.76 | 1.73e-06 M⁻¹ s⁻¹ |
| CC(C)(C)CN(C(=O)CCl)C1(C)CCS(=O)(=O)C1 (stereo not drawn) [Pin1-18] |  |  |  | −7.77 | 1.69e-08 M⁻¹ s⁻¹ |

Further lines, with some results ahead:

| Labeling [%] [1, 3] | Labeling [%] [1, 4] | Labeling [%] [1, 5] | SMILES | Reactivity Log k [2] | Reactivity k [2] |
| --- | --- | --- | --- | --- | --- |
|  | 100% |  | Cc1cccc(N(C(=O)CCl)C2C=CS(=O)(=O)C2)c1 (stereo not drawn) [PCM-0102579] |  |  |
|  | 100% |  | Cc1ccc(N(C(=O)CCl)C2C=CS(=O)(=O)C2)cc1 (stereo not drawn) [PCM-0102539] |  |  |
|  | 69% |  | Cc1ccc(N(C(=O)CCl)C2C=CS(=O)(=O)C2)cc1C (stereo not drawn) [PCM-0103082] |  |  |
|  | 100% |  | O=C(CCl)N(c1ccccc1)C1C=CS(=O)(=O)C1 (stereo not drawn) [PCM-0102372] |  |  |
| 0% | 87% |  | CC1(NC(=O)CCl)CCS(=O)(=O)C1 (stereo not drawn) [PCM-0102230] | −7.05 | 8.87e-08 M⁻¹ s⁻¹ |
|  | 100% |  | O=C(CCl)N(c1ccc(F)cc1)C1C=CS(=O)(=O)C1 (stereo not drawn) [PCM-0102868] |  |  |
|  | 42% |  | O=C(CCl)NCC1CCS(=O)(=O)C1 (stereo not drawn) [PCM-0102896] |  |  |
